Two compounds from US20040121965A1, “Method of treating resistant tumors” (Wyeth Holdings Corporation, priority 2002, published 2004) can be followed below.

The test system of one assay is S1. In words: Cell survival assay (SRB), S1. Format: cell-based. As to conditions: Homo sapiens. The text has this: (§1) Cells lines with previously known mechanisms of resistance. […] Res. 8: 207-218,1996); KB-3-1 (parental derived from an epidermoid carcinoma), KB-8.5, KB-V1 (Akiyama S-I, Fojo A, Hanover J A, Pastan I, Gottesman M M. Isolation and genetic characterization of human KB cell lines resistant to multiple drugs. Somatic Cell Mol. Gen., 11: 117-126,1985; Shen D-W, Cardarelli C, Hwang J, Cornwell M, Richert N, Ishii S, Pastan I, Gottesman MM. […] J. Biol. Chem., 261: 7762-7770, 1986); and HL-60 (parental derived from human leukemia) and HL60/AR (McGrath T., Center M. S. Adriamycin resistance in HL60 cells in the absence of detectable P-glycoprotein. Biochem. Res. Commun., 145:1171-1176,1987); A549 and A549.EpoB40 (He L., Yang C.-P.H., Horwitz S. B. Mutations in p-tubulin map to domains involved in regulation of microtubule stability in epothilone-resistant cell lines. Molecular Cancer Therapeutics. 1: 3-10, 2001). HCT-15 human colon carcinoma and DLD-1 human colon carcinoma are obtained from American Tissue Culture Collection. The MX-1W carcinoma is a Wyeth variant orginally obtained as MX-1 breast carcinoma from the National Cancer Institute. Cell lines selected for resistance to Representative Example 129. KB-3-1 cells are selected for resistance to Example 129 by chronically exposing cells to increasing concentrations of Example 129.
(§2) 2.2. Cell Survival Assay: Standard Pharmacological Test Procedure. The concentration of candidate inhibitor required to inhibit 50% of cell growth (IC50) is done according to previously reported methods. […] Compounds are serially diluted into media as 2× stocks and 100 μl added to cells in duplicate. Compounds are incubated with cells for 3 days. At the end of the incubation period the sulforhodamine B (SRB) assay, which measures protein content as an assessment of cell survival, is performed as described previously (Skehan P, Storeng R, Scudiero D, Monks A, McMahon J, Vistica D, Warren J T, Bokesch H, Kenney S, Boyd MR. New calorimetric cytotoxicity assay for anticancer-drug screening. J Natl Cancer Inst 1990 Jul 4;82(13):1107-12) with some modification as follows. For KB-3-1 cells with 20% FCS, media is gently decanted and replaced with 200 μl of serum-free media mixed with cold 50% TCA for a final concentration of 10% TCA. The plates are incubated for 1 hr at 4° C., followed by washing 5 times in cold distilled water, then air dried overnight. The fixed cells are stained for 10 min with 80 μl of 0.04% SRB solution prepared in 1% glacial acetic acid. Stain is discarded and plates washed 5 times in 1% glacial acetic acid, then air-dried until completely dry. Stained cell product is dissolved in 150 μl of 10 mM Trizma Base and placed on a shaker for 20 minutes until fully dissolved. Absorbance is read on a Victor V multi-label plate reader (Perkin Elmer, Gaithersburg, Md.).

The next assay deals with U87. As to the kind of experiment: Cell survival assay (SRB), U87. It is filed as cell-based. As to conditions: Homo sapiens, U-87 MG, 72 h. On the procedure: (§3) 2.2. Cell Survival Assay: Standard Pharmacological Test Procedure. […] Compounds are incubated with cells for 3 days.
The subject of another assay is 1A9. As to the kind of experiment: Cell survival assay (SRB), 1A9. Format: cell-based. Particulars: Homo sapiens. On the procedure: as §3
The subject of another assay is CX-1. In words: Cell survival assay (SRB), CX-1. It is filed as cell-based. As to conditions: Homo sapiens, 72 h; CX-1, colon; 3 days, SRB staining. As to the method:
as §3
(Sulforhodamine B stains cellular protein and so reports cell mass.)

Assay [1] is described as follows: Mitotic arrest and apoptosis. It is filed as cell-based. As to conditions: at 24 hr; followed by apoptosis (48 hr). As to the method: d) induces mitotic arrest (3-10 nM at 24 hr) followed by apoptosis (48 hr),
Another assay has as its system SKBR3. As to the kind of experiment: Cell survival assay (SRB), SKBR3. As to conditions: Homo sapiens, SK-BR-3, 72 h; SKBR3, breast; 3 days, SRB staining. It is filed as cell-based. On the procedure:
as §3

For another assay, the system named is BxPC3. In words: Cell survival assay (SRB), BxPC3. As to conditions: Homo sapiens, BXPC-3, 72 h. Format: cell-based. As to the method: as §3
For another assay, the system named is cellular microtubules. As to the kind of experiment: Cellular microtubules by immunofluorescence microscopy. Format: cell-based.
For another assay, the system named is DU145. As to the kind of experiment: Cell survival assay (SRB), DU145. Format: cell-based. Particulars: Homo sapiens, DU-145, 72 h; DU145, prostate; 3 days, SRB staining. As to the method: as §3
The subject of a further assay is MDA-MB-435. In words: Cell survival assay (SRB), MDA-MB-435. It is filed as cell-based. Particulars: Homo sapiens, 72 h; MDA-MB-435, breast; 3 days, SRB staining. As to the method:
as §3

Another assay deals with HCT-116. In words: Cell survival assay (SRB), HCT-116. Format: cell-based. Particulars: Homo sapiens. On the procedure: as §3
In another assay the test system is MAP-associated tubulin. As to the kind of experiment: Polymerization of MAP-associated tubulin, cell-free spectrophotometric assay. It is filed as biochemical.
Another assay has as its system MCF7. As to the kind of experiment: Cell survival assay (SRB), MCF7. Format: cell-based. As to conditions: Homo sapiens, MCF7, 72 h. As to the method: as §3
In another assay the test system is DLD-1. In words: Cell survival assay (SRB), DLD-1. Format: cell-based. Particulars: Homo sapiens, DLD-1, 72 h, 3 days.
Excerpt: as §1, §2

Another assay has as its system NCI-H838. As to the kind of experiment: Cell survival assay (SRB), NCI-H838. It is filed as cell-based. Particulars: Homo sapiens, 72 h; NCI-H838, NSCLC; 3 days, SRB staining. As to the method:
as §3

The test system of the next assay is HCT-15 tumor. As to the kind of experiment: Growth of tumors in nude mice, HCT-15 xenograft. Format: in vivo. As to conditions: paclitaxel 60 mg/kg IV, days 1,5,9. The text has this: 2.4. Growth of Tumors in Nude Mice.

Like-named read-outs stand apart in the source and are kept apart here.

Broadly, the IC50 is the concentration at which inhibition is half-maximal. In the case of `CN[C@H](C(=O)N[C@H](C(=O)N(C)[C@H](/C=C(\C)C(=O)O)C(C)C)C(C)(C)C)C(C)(C)c1ccccc1` [Example 129, N,β,β-trimethyl-L-phenylalanyl-N^1-[(1S,2E)-3-carboxy-1-isopropylbut-2-enyl]-N^1,3-dimethyl-L-valinamide], the half-maximal inhibitory concentration (IC50) was found to be 3.7 ± 2 nM in the assay with S1 (72 h); 3.7 ± 2 nM in the assay on S1 (read-out: S1 IC50, nM (N)); 2.4 ± 0.3 nM in the assay with U87; 0.56 ± 0.09 nM in the assay with 1A9 (1A9, 72 h); 2.3 nM in the assay with CX-1; 2.3 nM in the assay on SKBR3. Besides, the concentration for half-maximal inhibition (IC50) in the assay with BxPC3 stood at 0.7 nM; in the assay with DU145, 2 nM; with MDA-MB-435, 0.5 nM; with HCT-116 (HCT-116, 72 h) it was 0.7 ± 0.2 nM; in the assay on MCF7, 7.3 ± 2.3 nM; with DLD-1 (DLD-1, colon, SRB staining) it was 1.1 ± 0.4 nM. The IC50 in the assay on DLD-1 (DLD-1, SRB, vehicle control (DMSO), no MDR-1 inhibitor) is 1.2 nM; with DLD-1 (read-out: IC50 + 5.0 uM MDR-1 inhibitor, DLD-1, SRB, + 5.0 uM MDR-1 inhibitor (heptanenitrile of Table 2)), 1.1 nM. Further, the “concentration that induces mitotic arrest” value in assay [1] fell in the range of 3 to 10 nM. Moreover, the “effect on cellular microtubules” value in the assay on cellular microtubules is reported as “depolymerizes cellular microtubules”. The “polymerization of MAP-associated tubulin” value with MAP-associated tubulin is listed as “inhibitor of polymerization”.
For the compound `CC(=O)O[C@H]1C(=O)[C@@]2(C)[C@H]([C@H](OC(=O)c3ccccc3)[C@]3(O)C[C@H](OC(=O)[C@H](O)[C@@H](NC(=O)c4ccccc4)c4ccccc4)C(C)=C1C3(C)C)[C@]1(OC(C)=O)CO[C@@H]1C[C@@H]2O` [paclitaxel, reference compound], the IC50 is 6.3 ± 0.6 nM in the assay with NCI-H838; 92 ± 100 nM in the assay with S1 (72 h, S1, colon, 3 days, SRB staining, read-out: IC50); 92 ± 100 nM with S1 (S1 parental, Table 5, read-out: S1 IC50, nM (N)); 25.1 nM in the assay with U87 (U87, glioblastoma, 3 days, SRB staining, read-out: IC50); 5.1 ± 0.9 nM in the assay on 1A9 (72 h, 1A9, ovarian, 3 days, SRB staining, read-out: IC50); 10.8 nM with BxPC3 (BxPC3, pancreatic, 3 days, SRB staining, read-out: IC50). Also, the IC50 with HCT-116 (72 h, HCT-116, colon, 3 days, SRB staining, read-out: IC50) was determined as 4.5 nM; in the assay with DLD-1 (DLD-1, colon, SRB staining, read-out: IC50) it was 30.8 ± 12.7 nM; in the assay on DLD-1 (DLD-1, SRB, + 5.0 uM MDR-1 inhibitor (heptanenitrile of Table 2), read-out: IC50 + 5.0 uM MDR-1 inhibitor), 3.8 nM; in the assay on DLD-1 (DLD-1, SRB, vehicle control (DMSO), no MDR-1 inhibitor, read-out: IC50) it was 21.8 nM. Besides, the “% T/C on day 9” value in the assay with HCT-15 tumor stood at 114%. Besides, the “% T/C on day 13” value with HCT-15 tumor worked out at 106%. The “% T/C on day 17” value in the assay on HCT-15 tumor amounted to 123%. Moreover, the “% T/C on day 21” value in the assay on HCT-15 tumor worked out at 110%.
